Data on two molecules can be found in ChEMBL document CHEMBL2021873, “Blocking HIV-1 entry by a gp120 surface binding inhibitor” (Bioorg Med Chem Lett, 2012).

Experiment [1] can be described thus: (§1) Inhibition of Human immunodeficiency virus 1 3B gp120 expressed in african green monkey COS cells assessed as inhibition of […] between gp120 and CD4 expressed on human TZM-bl cells by ELISA. The format is cell-based.
Experiment [2] deals with Human immunodeficiency virus 1. The experiment in a line: Competitive inhibition of Human immunodeficiency virus 1 3B gp120 V3 loop assessed as blockade of 447-52D antibody binding by ELISA.
Experiment [3] relates to Human immunodeficiency virus 1. Put plainly: Antiviral activity against Human immunodeficiency virus 1 Clade B REJO4541.67 infected in human TZM-bl cells after 2 days by luciferase reporter gene analysis. The format is functional, organism-based. The following applies: Human immunodeficiency virus 1, Clade B REJO4541.67, TZM-bl, 48 h.
The subject of experiment [4] is Human immunodeficiency virus 1. The experiment in a line: Antiviral activity against Human immunodeficiency virus 1 Clade B 7165.18 infected in human TZM-bl cells after 2 days by luciferase reporter gene analysis. The class given is functional, organism-based. The following applies: Human immunodeficiency virus 1, Clade B 7165.18, TZM-bl, 48 h.
The subject of experiment [5] is Human immunodeficiency virus 1. The experiment in a line: Antiviral activity against Human immunodeficiency virus 1 Clade B 5768.4 infected in human TZM-bl cells after 2 days by luciferase reporter gene analysis. The class given is functional, organism-based. The following applies: Human immunodeficiency virus 1, Clade B 5768.4, TZM-bl, 48 h.
For experiment [6], the system named is Human immunodeficiency virus 1. Put plainly: Antiviral activity against Human immunodeficiency virus 1 3B infected in human TZM-bl cells assessed as inhibition of viral replication at 0.33 uM by luminometric analysis. As to conditions: TDE = time-dependent effect. The format is functional, organism-based.
For experiment [7], the system named is Human immunodeficiency virus 1. The experiment in a line: Antiviral activity against BMS-378806-resistant Human immunodeficiency virus 1 DH012 T/P. The class given is functional, organism-based.
Experiment [8] relates to Human immunodeficiency virus 1. Put plainly: Antiviral activity against Human immunodeficiency virus 1 Clade B NL4.3 infected in human TZM-bl cells after 2 days by luciferase reporter gene analysis. The format is functional, organism-based. The following applies: Human immunodeficiency virus 1, Clade B NL4.3, TZM-bl, 48 h.
The test system of experiment [9] is Human immunodeficiency virus 1. Put plainly: Competitive inhibition of Human immunodeficiency virus 1 3B gp120 V3 loop assessed as blockade of PK70 antibody binding by ELISA.
The subject of experiment [10] is Human immunodeficiency virus 1. The experiment in a line: Antiviral activity against Human immunodeficiency virus 1 Clade C Du422.1 infected in human TZM-bl cells after 2 days by luciferase reporter gene analysis. The class given is functional, organism-based. The following applies: Human immunodeficiency virus 1, Clade C Du422.1, TZM-bl, 48 h.
Experiment [11] concerns Human immunodeficiency virus 1. Put plainly: Competitive inhibition of Human immunodeficiency virus 1 3B gp120 glycan loop assessed as blockade of 2G12 antibody binding by ELISA.
For experiment [12], the system named is Human immunodeficiency virus 1. The experiment in a line: Competitive inhibition of Human immunodeficiency virus 1 3B gp120 V3 loop assessed as blockade of 39F antibody binding by ELISA.
The subject of the next experiment is COS. The description is as §1. The format is cell-based.
Experiment [13] has as its system Human immunodeficiency virus 1. Put plainly: Antiviral activity against Human immunodeficiency virus 1 Clade B WITO4160.33 infected in human TZM-bl cells after 2 days by luciferase reporter gene analysis. The following applies: Human immunodeficiency virus 1, Clade B WITO4160.33, TZM-bl, 48 h. The class given is functional, organism-based.
Experiment [14] relates to Human immunodeficiency virus 1. The experiment in a line: Antiviral activity against Human immunodeficiency virus 1 Clade C ZM197M.PB7 infected in human TZM-bl cells after 2 days by luciferase reporter gene analysis. The class given is functional, organism-based. As to conditions: Human immunodeficiency virus 1, Clade C ZM197M.PB7, TZM-bl, 48 h.
For experiment [15], the system named is Human immunodeficiency virus 1. Put plainly: Antiviral activity against Human immunodeficiency virus 1 Clade B SS1196.1 infected in human TZM-bl cells after 2 days by luciferase reporter gene analysis. The class given is functional, organism-based. As to conditions: Human immunodeficiency virus 1, Clade B SS1196.1, TZM-bl, 48 h.
Experiment [16] deals with Human immunodeficiency virus 1. The experiment in a line: Antiviral activity against Human immunodeficiency virus 1 Clade C Du123.6 infected in human TZM-bl cells after 2 days by luciferase reporter gene analysis. The format is functional, organism-based. As to conditions: Human immunodeficiency virus 1, Clade C Du123.6, TZM-bl, 48 h.
In experiment [17] the test system is Human immunodeficiency virus 1. Put plainly: Antiviral activity against Human immunodeficiency virus 1 DH012. The format is functional, organism-based.
For experiment [18], the system named is Human immunodeficiency virus 1. The experiment in a line: Antiviral activity against Human immunodeficiency virus 1 Clade C ZM109F.PB4 infected in human TZM-bl cells after 2 days by luciferase reporter gene analysis. As to conditions: Human immunodeficiency virus 1, Clade C ZM109F.PB4, TZM-bl, 48 h. The class given is functional, organism-based.
Experiment [19] deals with Human immunodeficiency virus 1. The experiment in a line: Antiviral activity against BMS-378806-resistant Human immunodeficiency virus 1 YU-2 T/P. The format is functional. As to conditions: Human immunodeficiency virus type 1 (isolate YU2).
The subject of experiment [20] is Human immunodeficiency virus 1. Put plainly: Antiviral activity against Human immunodeficiency virus 1 3B infected in human TZM-bl cells assessed as inhibition of viral replication at 1 uM by luminometric analysis. The format is functional, organism-based. The following applies: TDE = time-dependent effect.
Experiment [21] concerns Human immunodeficiency virus 1. The experiment in a line: Antiviral activity against Human immunodeficiency virus 1 YU-2. The class given is functional. As to conditions: isolate YU2.
Experiment [22] relates to Human immunodeficiency virus 1. Put plainly: Antiviral activity against Human immunodeficiency virus 1 Clade C Du151.2 infected in human TZM-bl cells after 2 days by luciferase reporter gene analysis. The class given is functional, organism-based. As to conditions: Human immunodeficiency virus 1, Clade C Du151.2, TZM-bl, 48 h.
The test system of experiment [23] is Human immunodeficiency virus 1. The experiment in a line: Antiviral activity against Human immunodeficiency virus 1 Clade B RHPA4259.7 infected in human TZM-bl cells after 2 days by luciferase reporter gene analysis. The format is functional, organism-based. The following applies: Human immunodeficiency virus 1, Clade B RHPA4259.7, TZM-bl, 48 h.

Active and inactive are the calls of the source. The rule behind the calls is not given here. Bounds are passed on as bounds.

In the case of `CCCCOc1c2cc(C(=O)Nc3cc(C(=O)O)cc(C(=O)OCc4ccccc4)c3)cc1Cc1cc(C(=O)Nc3cc(C(=O)O)cc(C(=O)OCc4ccccc4)c3)cc(c1OCCCC)Cc1cc(C(=O)Nc3cc(C(=O)O)cc(C(=O)OCc4ccccc4)c3)cc(c1OCCCC)Cc1cc(C(=O)Nc3cc(C(=O)O)cc(C(=O)OCc4ccccc4)c3)cc(c1OCCCC)C2`, the EC50 in experiment [1] was over 70000 nM. Further, in experiment [2], the inhibition result was “inactive”.

`CCCCOc1c2cc(C(=O)Nc3cc(C(=O)O)cc(C(=O)O)c3)cc1Cc1cc(C(=O)Nc3cc(C(=O)O)cc(C(=O)O)c3)cc(c1OCCCC)Cc1cc(C(=O)Nc3cc(C(=O)O)cc(C(=O)O)c3)cc(c1OCCCC)Cc1cc(C(=O)Nc3cc(C(=O)O)cc(C(=O)O)c3)cc(c1OCCCC)C2`: the IC50 in experiment [3] stood at 1900 nM; in experiment [4] it was 4500 nM; in [5], 4100 nM; in experiment [8], 650 nM; in experiment [10], 1800 nM; in experiment [13] it was 1800 nM. In addition, the half-inhibitory concentration (IC50) in experiment [14] came to 2700 nM; in [15], 2800 nM; in [16] it was 1400 nM; in experiment [18] it was 3900 nM; in experiment [22], 3100 nM; in experiment [23] it was 3100 nM. The Activity entry in [6] and in [20] was “tde” throughout. In addition, the outcome in experiment [7], in experiment [17], in experiment [19] and in experiment [21] was Active. For the same molecule, the inhibition result in experiment [9] and in [12] was “Active” each time. Moreover, in experiment [11], the inhibition entry is “inactive”. The inhibition entry (with COS; in [2]) was “Dose-dependent effect” throughout.
